Experimental findings from patent US20010044404A1, “Cleaning process and composition” (3M Innovative Properties Company, priority 1995, published 2001) are described below.

The nature of data set [1]: Flash point testing ASTM D3278-89. The data set is classed as physicochemical. The procedure: The alkoxy-substituted perfluorocompounds C4F9OCH3, C4F9OC2H5, and c-C6F11OCH3 were tested for flash point by the standard method defined by ASTM D3278-89.
Data set [2] in a line: Stability in the presence of base: aqueous NaOAc, fluoride ion measurement. To be noted: 10 g with 10 g 0.1M NaOAc, 110° C., 16 hours. The data set is classed as physicochemical. The procedure:
To assess hydrolytic stability, a ten gram sample of alkoxy-substituted perfluorocompound was combined with 10 g of 0.1M NaOAc and sealed in a 2.54 cm (internal diameter) by 9.84 cm Monel™ 400 alloy (66% nickel, 31.5% copper, and 1.2% iron and several minor components) tube (available from Paar Instrument Co. of Moline, Ill. as Part Number 4713cm). The tube was heated at 110° C. in a forced air convection oven for 16 hours. After cooling to room temperature, a 1 mL sample of the tube contents was diluted with 1 mL of total ionic strength adjustment buffer (TISAB, available from Orion Research, Inc., a mixture of 1,2-cyclohexylene dinitrilotetraacetic acid, deionized water, sodium acetate, sodium chloride, and acetic acid). The concentration of fluoride ion (resulting from any reaction of the perfluorocompound with the aqueous NaOAc) was measured using an Orion Model 720A Coulombmeter with a F-specific electrode which had been previously calibrated using 0.5 and 500 ppm F^− solutions. Based on the measured fluoride ion concentration, the rate at which HF had been generated by reaction of the aqueous NaOAc with the perfluorocompound was calculated.

A short description of data set [3]: Paraffinic oil removal: solvating agent, then rinse in boiling solvent. To be noted: methyl caproate/dipropylene glycol di-n-butyl ether 30 seconds, boiling rinse 30 seconds. How it is done:
The above-described test coupon was dipped into a paraffinic oil comprising a mixture of linear and branched hydrocarbons (DuoSeal Pump Oil, available from Sargent Welch), was immersed in mixed solvating agent comprising approximately 50% methyl caproate and 50% dipropylene glycol di-n-butyl ether for 30 seconds, and was then rinsed in boiling alkoxy-substituted perfluorocompound for 30 seconds. The percent oil removal was determined in the above-described manner.

A short description of data set [4]: Mineral oil removal from aluminum coupon, sonication in solvent. As to conditions: sonicated 1 minute. The procedure: In the following Examples and Comparative Examples, the cleaning ability of the alkoxy-substituted perfluorocompounds used in the cleaning process of the invention was further evaluated. A 1.28 cm×1.28 cm×0.225 cm wire-wrapped, aluminum coupon was coated with white heavy mineral oil (available from Aldrich Chemical) by immersing the coupon in an oil-filled beaker. The initial amount of the oil on the coupon was determined by weighing it on an analytical balance to the nearest 0.1 mg. The coupon was immersed in a container of solvent and sonicated for 1 minute at the indicated temperature (see Table 3 below for the solvents and temperatures used). The coupon was then weighed again, and the results were recorded in Table 3 as percent oil removal.

The nature of data set [5]: Pump oil removal with n-C6H14/perfluorocompound mixture at room temperature, ultrasonic. To be noted: 40 volume % n-C6H14, 60 volume % fluorinated component, 60 seconds. The procedure: The above-described test coupon was dipped into DuoSeal Pump Oil (available from Sargent-Welch) and was then immersed in a mixture of 40 volume % n-C6H14 and 60 volume % alkoxy-substituted perfluorocompound (a cleaning composition of the invention) for 60 seconds at room temperature with ultrasonic agitation. The percent oil removal was determined in the above-described manner.

A short description of data set [6]: Mineral oil removal with boiling methyl decanoate/perfluorocompound mixture. To be noted: boiling mixture 40 volume % methyl decanoate, 60 volume % perfluorocompound. How it is done: The above-described test coupon was dipped in white heavy mineral oil (available from Aldrich Chemical), was immersed in a boiling single-phase mixture of 40 volume % of a solvating agent comprising essentially methyl decanoate and 60 volume % of alkoxy-substituted perfluorocompound (a cleaning composition of the invention) for 60 seconds, was cooled for 60 seconds, and was then immersed in mixture vapor for 30 seconds. The percent oil removal was determined in the above-described manner.

The nature of data set [7]: Pump oil removal with boiling mixed terpenes/perfluorocompound mixture. As to conditions: boiling mixture 40 volume % mixed terpenes, 60 volume % fluorinated component. How it is done:
The above-described test coupon was dipped into DuoSeal Pump Oil (available from Sargent-Welch), was immersed in a boiling mixture of 40 volume % of a solvating agent comprising mixed terpenes having a boiling range of 243-274° C. and 60 volume % of alkoxy-substituted perfluorocompound (a cleaning composition of the invention), was cooled for 60 seconds, and was then immersed in mixture vapor for 30 seconds. The percent oil removal was determined in the above-described manner.

Data set [8] is described as follows: Perfluoropolyether oil removal in solvent vapor. To be noted: Brayco 815Z; vapor over boiling liquid, 60 seconds. How it is done: The above-described aluminum coupon was dipped into Brayco 815Z perfluoropolyether oil (available from Castrol Inc., molecular weight of about 10,000) and then immersed in alkoxy-substituted perfluorocompound vapor (over the boiling liquid) for 60 seconds. The percent oil removal was determined in the above-described manner.

Data set [9] is described as follows: Ability to dissolve halogenated oils (miscibility). It counts as physicochemical. To be noted: room temperature. The procedure:
The ability of alkoxy-substituted perfluorocompounds to dissolve several halogenated oils was determined by adding a measured amount of oil to alkoxy-substituted perfluorocompound until the resulting mixture became turbid or phase-split. […] The results (shown in Table 12) indicate that alkoxy-substituted perfluorocompounds have very high ability to dissolve halogenated oils. Thus, the perfluorocompounds can be used as carrier solvents for halogenated oils in the deposition of coatings of such oils on substrate surfaces.

Data set [10] in a line: Pump oil removal in vapor of boiling n-C6H14/perfluorocompound mixture. As to conditions: vapor of boiling 40 volume % n-C6H14, 60 volume % fluorinated component; 60 seconds. The procedure: The above-described test coupon was dipped into DuoSeal Pump Oil (available from Sargent-Welch) and was then immersed in the vapor of a boiling mixture of 40 volume % n-C6H14 and 60 volume % alkoxy-substituted perfluorocompound (a cleaning composition of the invention), for 60 seconds. The percent oil removal was determined in the above-described manner.

Data set [11] can be described thus: Fluorinated oil removal from aluminum coupon. As to conditions: Krytox 157FSM, room temperature. How it is done: Using essentially the same procedure as that described in Examples 8-10, the ability of the alkoxy-substituted perfluorocompounds to remove a fluorinated oil was evaluated. As in the previous Examples, a coupon was immersed in Krytox™ 157FSM perfluoropolyether oil having carboxylic acid end groups (available from DuPont), and the percent oil remaining after immersion in the solvent (at room temperature) was determined.

A short description of data set [12]: Rinse agent in co-solvent cleaning of solder flux. To be noted: solvating agent 1 minute at about 55° C., then 30 seconds in boiling solvent. The procedure: The ability of alkoxy-substituted perfluorocompounds to function as a rinse agent in a co-solvent cleaning process was evaluated. The above-described aluminum coupon was coated with solder flux (available from Alpha Metals as Alpha 611 rosin, mildly activated flux) by immersing the coupon into a flux-filled beaker. The flux-coated coupon was then dried using a forced air convection drier. The initial amount of the flux on the coupon was determined by weighing it on an analytical balance to the nearest 0.1 mg. The coupon was immersed in a container of a mixed solvating agent comprising approximately 50% methyl decanoate and 50% dipropylene glycol di-n-butyl ether and was sonicated for 1 minute at approximately 55° C. The coupon was then immersed for 30 seconds into alkoxy-substituted perfluorocompound which had been heated to its boiling point. The coupon was weighed again, and the results were recorded in Table 5 below as percent oil removed from the coupon.

As for C4F9OC2H5 [Example C4F9OC2H5], the Flash point result in data set [1] is listed as “no flash point”. Besides, the “HF Generation Rate” value in data set [2] turned out to be 0.22 µg/g/h. Further, the “Percent Soil Removed” value is given as 100.0% in data set [3]; 99.0% in [5]; 94.28% in data set [6]; 99.4% in data set [7]; 93.3% in data set [8]; 97.1% in [10]. Also, the percent oil removal came to 56.0% in [4] (23 ° C.), 99.2% in data set [4] (50 ° C.) and 100.0% in [4] (60 ° C.). Also, the Miscibility with solute entry in data set [9] (Brayco 815Z Perfluoropolyether (MW about 10,000)), in data set [9] (Chlorotrifluoroethylene Fluid (Inland 41 Vacuum Pump Oil)) and in [9] (Fomblin AM-2001 Functionalized Perfluoropolyether) was “Miscible (greater than or equal to 50 percent by volume solubility at room temperature)” throughout. The results for the “% Removed” value in data set [11] and in [12] were 99.3% and 100.0%, respectively.
